# In patent US5869448A, “Cyclic CS-1 peptidomimetics, compositions and methods of using same” (Cytel Corporation, priority 1995, dated 1999):
# Several values for one entry are separate records, joined by “and”; a condition that tells them apart may be missing. Equal entries are not always repeated. Positions of bridges follow the written chain, without caps; N, C: chain ends. Non-standard residues stand in square brackets, D forms with d. Residues, ends and D or L forms follow the SMILES beside them. No end group written: not given here. *: point of attachment. Pen = CC(C)(S)[C@H](N)C(=O)O; PhAc = O=C(Cc1ccccc1)*
# How the values were obtained:
# [1] = target: T1, VLA-4/CS-1 (Homo sapiens, UniProt P05556+P13612); test: In vitro inhibition of binding of 51Cr-labeled Jurkat cells to solid phase-bound CS-1 peptide; format: cell-based
# T1 construct: inflammatory cells that contain the VLA-4 receptor [Jurkat cells; host or cells: Jurkat (human T lymphoblastic line)
# Protocol: Binding inhibition is measured here as a concentration of peptide that inhibits one-half the binding between a standard number of Jurkat cells and a standard amount of CS-1 peptide bound to the surface of a microtiter plate well. Those concentrations are conveniently expressed as IC50 values, smaller numbers indicating a lower concentration required to inhibit 50 percent binding and therefore greater potency. Further specifics of this assay are provided hereinafter.
# Jurkat cells (ATCC TIB 152), a human T lymphoblastic line, labeled with ^51 chromium were used to assay in vitro binding inhibition provided by various peptides discussed herein.
# The plates were prepared as follows: The 25-mer CS-1 peptide (SEQ ID NO:5) dissolved at 0.5-1 μg/ml in a buffer of 0.1M NaHCO3 at pH 9.5 that also contained 10 μg/ml of bovine serum albumin (BSA) or a conjugate of the CS-1 peptide linked to ovalbumin (CS-1-OVA) dissolved at 1-2.5 μg/ml in the same buffer was used as the substrate. Each well of the microtiter plates was coated with 50 μl of substrate or buffer alone for controls. The wells were permitted to dry out completely and were then rinsed twice with PBS at pH 7.4. Non-specific binding sites of each well were then blocked using 200 μl per well of RPMI/1 percent BSA for two hours at room temperature. Both solid phase-affixed substrates provided similar results.
# Jurkat cells (3-5×10^6 cells) were placed into a 15 ml FALCON™ round-bottom tube with a cap. The tube was centrifuged, and the extra medium was then removed.
# Two hundred microliters of a ^51 Cr labeling solution were added to the centrifuged cells and maintained in contact with the cells for 90-120 minutes in a warm room. This procedure typically provides about 50,000-100,000 cpm/well with about 80-100 percent cell viability. Longer contact times provide a greater amount of labeling but lower cell viability.
# The labeled cells were washed with (i) complete medium, (ii) 1 mM EDTA/PBS and then (iii) RPM1/1 percent BSA free of serum components. The cells were centrifuged after each washing. The cells were finally resuspended in serum-free RPMI/1 percent BSA at a concentration of 1×10^6 viable cells/ml, which provides a concentration that is diluted by one-half in the assay.
# Cyclic inhibitor peptides were prepared as stock solutions at 20 mg/ml in DMSO in 1.5 ml cryogenic screwcap vials, and were stored at -70° C. Using FLOW™ round-bottom or V-bottom microtiter plates, the inhibitor peptides were prepared at twice the assay concentration in RPMI/1 percent BSA at 60 μl/well.
# Four initial dilutions were typically used.
# The ^51 Cr-labeled cells (1×10^6 cells at 60 μl/well) were then admixed with the diluted cyclic peptide solutions. The admixtures were maintained at room temperature (about 22° C.) for 30 minutes.
# One hundred microliters of each inhibitor peptide/cell admixture were transferred to the substrate-coated wells. This was done in triplicate for each dilution. The resulting plates were incubated for 30 minutes at 37° C. and then washed gently three times with RPMI/1 percent BSA at 200 μl/well. Binding was observed microscopically, particularly after the second wash.
# The bound cells were then lysed by the addition of a 0.5 percent solution of sodium dodecylsulfate in water at 100 μl/well. The resulting solutions were then processed for counting and calculation of IC50 values following usual procedures. Appropriate positive and negative controls were used with each plate so that the results of separate assays could be normalized and compared.
# The potency data of Table 1 and Table 2 are so normalized. The absolute IC50 value for the peptide of SEQ ID NO:7 is 0.3 μM.
# [2] = target: T2, VLA-4/sVCAM-1 (Homo sapiens, UniProt P05556+P13612); test: In vitro inhibition of binding of Jurkat cells to solid phase-bound sVCAM-1; format: cell-based
# T2 construct: host or cells: Jurkat cells (VLA-4). sVCAM-1 was made in house in transfected human 293 cells (ATCC CRL 1573) and purified from supernatant
# Protocol: Assays conducted using sVCAM-1 as solid phase-bound antigen were carried out substantially identically to those using CS-1. The sVCAM-1 polypeptide used had the same amino acid residue sequence as the materials described in Lobb et al., Biochem. Biophys. Res. Commun., 178:1498-1504 (1991) and Cybulsky et al., Proc. Natl. Acad. Sci., USA, 88:7859-7863 (1991). Human embryonal kidney line 293 (ATCC CRL 1573) cells were co-transfected with a plasmid (pCDNAI;invitrogen) containing the sVCAM-1 DNA sequence and plasmid pSV2-neo [Southern et al., J. Mol. Appl. Gen., 1:327341 (1992)]. Cells were selected in DMEM, 10 percent fetal bovine serum and 600 μg/ml Geneticin. sVCAM-1 was purified from supernatants using a column containing monoclonal antibody P3H12 (anti-human VCAM-1) coupled to Sepharose 4B. The sVCAM-1 was eluted using 0.1M glycine at pH 2.5 following 50 column washes with PBS, pH 7.2. The eluate was immediately neutralized and dialyzed against PBS for use.
# [3] = Retention of potency in PBS containing 10 percent mouse or human serum; format: in vitro ADME; conditions: PBS at 7.2-7.4 with 10 percent mouse or human serum
# [4] = system: Porcine peripheral blood lymphocytes; test: In vitro porcine allograft model, transendothelial lymphocyte migration; format: cell-based; conditions: 10 μg/ml in the medium, IL-1β-stimulated SMC
# Protocol: A similar study is carried out in vitro using porcine coronary artery endothelial cells (EC; as are present in the IEL) and smooth muscle cells (SMC; as are present in the medial layer of the artery). The two cell types are cultured using a membrane transwell system, with the SMC on the bottom layer in M-199 medium (Gibco Labs.). The SMC are stimulated with 100 ng/ml of interleukin-1β (IL-1β) for 24 hours prior to the start of the assay. Porcine peripheral blood lymphocytes are separated by Ficoll-Hypaque, radiolabeled and incubated overnight (about 18 hours) on the EC.
# Transendothelial lymphocyte migration in the IL-1β-stimulated SMC is observed as compared to unstimulated SMC (p<0.05).
# [5] = in vivo; cited from earlier work
# [6] = Table 2, normalized, relative to standard peptide of SEQ ID NO:6
# [7] = Table 1, normalized IC50, standard peptide of SEQ ID NO:6 = 1
# T1 sequence (P13612 34-1032): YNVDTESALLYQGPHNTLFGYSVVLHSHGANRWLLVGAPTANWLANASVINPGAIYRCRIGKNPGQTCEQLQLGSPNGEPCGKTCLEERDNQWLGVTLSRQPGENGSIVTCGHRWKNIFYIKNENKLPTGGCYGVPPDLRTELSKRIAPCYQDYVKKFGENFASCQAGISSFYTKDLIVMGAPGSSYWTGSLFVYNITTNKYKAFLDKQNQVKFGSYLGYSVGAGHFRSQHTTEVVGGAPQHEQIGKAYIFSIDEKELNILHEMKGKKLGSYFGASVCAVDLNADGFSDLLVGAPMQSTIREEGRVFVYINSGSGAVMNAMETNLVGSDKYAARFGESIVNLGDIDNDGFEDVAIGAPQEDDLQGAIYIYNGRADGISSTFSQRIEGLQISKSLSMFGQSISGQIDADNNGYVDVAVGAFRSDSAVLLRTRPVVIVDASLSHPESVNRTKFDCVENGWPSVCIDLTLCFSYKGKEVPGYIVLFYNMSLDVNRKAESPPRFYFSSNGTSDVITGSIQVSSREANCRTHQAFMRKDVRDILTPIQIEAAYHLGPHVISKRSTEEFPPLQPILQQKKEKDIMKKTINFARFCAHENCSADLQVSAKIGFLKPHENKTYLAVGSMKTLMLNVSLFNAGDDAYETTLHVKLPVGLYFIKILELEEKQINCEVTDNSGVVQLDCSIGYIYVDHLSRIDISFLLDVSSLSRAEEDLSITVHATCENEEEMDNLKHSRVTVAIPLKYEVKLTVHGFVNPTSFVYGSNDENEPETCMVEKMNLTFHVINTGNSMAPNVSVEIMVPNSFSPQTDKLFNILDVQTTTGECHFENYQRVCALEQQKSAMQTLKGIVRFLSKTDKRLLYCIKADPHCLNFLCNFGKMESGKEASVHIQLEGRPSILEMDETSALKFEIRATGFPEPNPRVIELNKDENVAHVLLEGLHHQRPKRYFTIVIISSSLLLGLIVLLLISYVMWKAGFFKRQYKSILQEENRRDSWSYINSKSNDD
# T1 sequence (P05556 21-798): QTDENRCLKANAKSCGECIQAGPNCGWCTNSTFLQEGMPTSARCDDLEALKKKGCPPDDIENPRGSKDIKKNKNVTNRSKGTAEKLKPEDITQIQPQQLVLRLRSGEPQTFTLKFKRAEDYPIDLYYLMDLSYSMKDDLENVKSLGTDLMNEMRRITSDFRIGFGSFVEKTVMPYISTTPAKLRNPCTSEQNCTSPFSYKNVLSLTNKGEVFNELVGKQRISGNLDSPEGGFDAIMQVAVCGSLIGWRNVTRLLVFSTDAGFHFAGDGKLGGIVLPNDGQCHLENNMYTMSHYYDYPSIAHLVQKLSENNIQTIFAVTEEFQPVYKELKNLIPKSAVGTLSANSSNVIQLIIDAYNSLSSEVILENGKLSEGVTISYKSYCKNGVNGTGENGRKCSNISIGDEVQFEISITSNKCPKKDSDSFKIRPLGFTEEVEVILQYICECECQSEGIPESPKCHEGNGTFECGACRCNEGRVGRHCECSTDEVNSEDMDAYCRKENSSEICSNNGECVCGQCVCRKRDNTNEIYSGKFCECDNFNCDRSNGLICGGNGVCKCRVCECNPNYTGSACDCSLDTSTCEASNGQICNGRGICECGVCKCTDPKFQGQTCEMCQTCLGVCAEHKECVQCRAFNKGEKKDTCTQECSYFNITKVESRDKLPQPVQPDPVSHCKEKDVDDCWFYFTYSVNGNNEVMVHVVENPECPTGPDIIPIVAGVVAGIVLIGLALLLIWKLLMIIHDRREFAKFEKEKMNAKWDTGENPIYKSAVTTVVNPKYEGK
# T2 sequence (P13612 34-1032): as the sequence (P13612 34-1032) above
# T2 sequence (P05556 21-798): as the sequence (P05556 21-798) above
molecule,measurement,setting,value
"NC(=O)[C@@H]1CSSC[C@H](NC(=O)Cc2ccccc2)C(=O)N[C@@H](CC(=O)O)C(=O)N[C@@H](Cc2ccccc2)C(=O)N1 [SEQ ID NO:7, N-phenylacetyl-Cys-Asp-Phe-Cys-NH2] (PhAc-CDFC-NH2; disulfide 1-4)","potency relative to the best linear peptide (XLDFZ), Jurkat cell binding to CS-1",[1],about two-thirds
same,IC50,"[1]; Jurkat cells, solid phase-bound CS-1, read-out: absolute IC50 value",300 nM
same,Relative Potency,[1]; [6],954
same,CS-1 binding inhibition potencies relative to each other,[1]; XLDFp = 1,~1.8
same,inhibition potency relative to the Standard 10-mer of SEQ ID NO:6,[1]; times more potent than standard 10-mer,500-600 and ~563
same,"potency relative to the best linear peptide (XLDFZ), Jurkat cell binding to sVCAM-1",[2],about 3 times
same,loss of potency after 24 hours,[3]; 24 hours,no loss of potency
"CC(C)C[C@@H]1NC(=O)[C@H](Cc2ccccc2)NC(=O)[C@@H](N)CSSC[C@@H](C(N)=O)NC(=O)[C@H](CO)NC(=O)[C@@H]2CCCN2C(=O)[C@H](Cc2ccccc2)NC(=O)[C@H](CC(=O)O)NC1=O [SEQ ID NO:13, CFLDFPSC--NH2] (H-CFLDFPSC-NH2; disulfide 1-8)",transendothelial lymphocyte migration,[4],reduces lymphocyte migration
NC(=O)[C@@H]1CCCN1C(=O)[C@@H]1CSSC[C@H](NC(=O)[C@@H](N)Cc2ccccc2)C(=O)N[C@@H](CC(=O)O)C(=O)N1 [compound 30] (H-FCDCP-NH2; disulfide 2-4),Relative Potency,[1]; [7],< 1
CC(C)C[C@@H]1NC(=O)[C@H](CCC(=O)O)NC(=O)[C@@H]2CCCN2C(=O)[C@@H](N)CSSC[C@@H](C(N)=O)NC(=O)[C@H](CO)NC(=O)[C@@H]2CCCN2C(=O)[C@H](Cc2ccccc2)NC(=O)[C@H](CC(=O)O)NC1=O [compound 33] (H-CPELDFPSC-NH2; disulfide 1-9),Relative Potency,[1]; [7],31
.phi.AcJDFc-NH2 (PhAc-[Pen]DF[dC]-NH2; disulfide 1-4),Relative Potency,[1]; [7],4
same,Relative Potency,[1]; [6],4.07
CS-1 peptide: 25-residue (25-mer) CS-1 portion of fibronectin that binds to the VLA-4 receptor (DELPQLVTLPHPNLHGPEILDVPST) [reference compound],time in which potency is lost,[3],less than one
same,clearance from blood circulation,[5],rapidly cleared
ILDFP-NH2 [compound 27],Relative Potency,[1]; [7],2
ILDVPILDVP-NH2 [compound 26],Relative Potency,[1]; [7],2
SFDFS-NH2 [compound 31],Relative Potency,[1]; [7],< 1
